The results in this text go back to ChEMBL document CHEMBL1153835, “Targeting the calcineurin pathway enhances ergosterol biosynthesis inhibitors against Trichophyton mentagrophytes in vitro and in a human skin infection model” (Antimicrob Agents Chemother, 2007).

Data set [1] relates to Trichophyton mentagrophytes. Put plainly: Antifungal activity against Trichophyton mentagrophytes DUMC112.02 by CLSI protocol. The format is functional.
Data set [2] deals with Trichophyton mentagrophytes. As to the kind of experiment: Antifungal activity against Trichophyton mentagrophytes DUMC160.03 by CLSI protocol. The format is functional.
The subject of a further data set is Zone of skin. Put plainly: Toxicity to human skin assessed as damage of skin integrity at 2 fold MIC administered 30 mins post inoculation followed by once in every 2 days for 7 days by scanning electron microscopy. The format is tissue-based.
The test system of data set [3] is Trichophyton mentagrophytes. Put plainly: Antifungal activity against Trichophyton mentagrophytes DUMC160.03 infected in human skin at 2 fold MIC administered 30 mins post infection followed by once in every 2 days for 7 days by scanning electron microscopy relative to control. Type of data set: functional, organism-based.

Each structure is given as a SMILES string. In brackets after ≈: the same amount, converted by molar mass. Activity calls are given as the source filed them. The rule behind the calls is not given here.

The MIC is the least concentration at which growth counts as inhibited. A low value points to greater potency. As a reminder, the MIC80 is the lowest concentration that inhibits either 80% of growth or 80% of the strains tested, depending on the study. Turning to `C=CC[C@@H]1/C=C(\C)C[C@H](C)C[C@H](OC)[C@H]2O[C@@](O)(C(=O)C(=O)N3CCCC[C@H]3C(=O)O[C@H](/C(C)=C/[C@@H]3CC[C@@H](O)[C@H](OC)C3)[C@H](C)[C@@H](O)CC1=O)[C@H](C)C[C@@H]2OC` [TACROLIMUS ANHYDROUS], the MIC in data set [1] and in data set [2] was 1 µg/mL (≈ 1.24 µM) in each case. Besides, the MIC80 in data set [1] and in data set [2] was 1 µg/mL (≈ 1.24 µM) throughout. For the same molecule, the Activity entry in the data set on Zone of skin was “Non-toxic”. In addition, in data set [3], the result was inactive.

With `C/C=C/C[C@@H](C)[C@@H](O)[C@H]1C(=O)N[C@@H](CC)C(=O)N(C)CC(=O)N(C)[C@@H](CC(C)C)C(=O)N[C@@H](C(C)C)C(=O)N(C)[C@@H](CC(C)C)C(=O)N[C@@H](C)C(=O)N[C@H](C)C(=O)N(C)[C@@H](CC(C)C)C(=O)N(C)[C@@H](CC(C)C)C(=O)N(C)[C@@H](C(C)C)C(=O)N1C` [CYCLOSPORINE], the MIC in data set [1] worked out at 2 µg/mL (≈ 1.66 µM); in data set [2], 1 µg/mL (≈ 0.832 µM). Further, the figures for the MIC80 in data set [1] and in data set [2] were 2 µg/mL (≈ 1.66 µM) and 8 µg/mL (≈ 6.65 µM), respectively.

As for `CN(C/C=C/C#CC(C)(C)C)Cc1cccc2ccccc12` [TERBINAFINE], the MIC in data set [1] was determined as 0.004 µg/mL (≈ 0.0137 µM); in data set [2], 0.0312 µg/mL (≈ 0.107 µM). In addition, the Activity result in the data set with Zone of skin is listed as “Non-toxic”. Besides, in data set [3], the result was Active.

As to `OC(Cn1cncn1)(Cn1cncn1)c1ccc(F)cc1F` [FLUCONAZOLE], in data set [1], it took 8 µg/mL (≈ 26.1 µM) to inhibit growth (MIC) and the MIC80 came to 16 µg/mL (≈ 52.2 µM). Besides, in data set [2], the MIC came out at 8 µg/mL (≈ 26.1 µM) and the MIC80 stood at 16 µg/mL (≈ 52.2 µM). For the same molecule, the Activity result with Zone of skin is reported as “Non-toxic”. In addition, the outcome in data set [3] was Active.
